Data taken from PubChem BioAssay AID248 (DTP/NCI, 2004).
“And” between values parts separate entries of the source, which are not always exact repeats. Equal values may be shown once. Toxic doses and inconclusive results are not listed. Cut-off read from the data, not from the text of the source: active = T/C of 150% or more; inactive = T/C below 125%.

System: L1210 leukemia ip in BDF1 mice, survival T/C
Experiment: NCI In Vivo Anticancer Drug Screen. Data for tumor model L1210 Leukemia (intraperitoneal) in B6D2F1 (BDF1) mice
Conditions: endpoint: mean survival time, higher = longer survival
Procedure, shortened: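 Antitumor effect is assessed in tumor-bearing animals. Survival in the compound arm is compared with a vehicle-dosed control arm and expressed as their quotient.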

[1] = dose: 50.0 mg/kg/injection, schedule: Q01DX009 (ip), vehicle: saline with Tween-80
[2] = dose: 100.0 mg/kg/injection, schedule: Q01DX009 (ip), vehicle: saline
[3] = dose: 100.0 mg/kg/injection, schedule: Q04DX003 (ip), vehicle: saline
[4] = dose: 200.0 mg/kg/injection, schedule: Q01DX009 (ip), vehicle: saline
[5] = dose: 200.0 mg/kg/injection, schedule: Q04DX003 (ip), vehicle: saline
[6] = dose: 400.0 mg/kg/injection, schedule: Q01DX009 (ip), vehicle: saline
[7] = dose: 400.0 mg/kg/injection, schedule: Q04DX003 (ip), vehicle: saline
[8] = dose: 75.0 mg/kg/injection, schedule: Q01DX001 (ip), vehicle: other
[9] = dose: 150.0 mg/kg/injection, schedule: Q01DX001 (ip), vehicle: other
[10] = dose: 200.0 mg/kg/injection, schedule: Q01DX001 (ip), vehicle: saline
[11] = dose: 400.0 mg/kg/injection, schedule: Q01DX001 (ip), vehicle: saline
[12] = dose: 100.0 mg/kg/injection, schedule: Q01DX001 (ip), vehicle: carboxymethylcellulose (CMC)
[13] = dose: 200.0 mg/kg/injection, schedule: Q01DX001 (ip), vehicle: carboxymethylcellulose (CMC)
[14] = dose: 400.0 mg/kg/injection, schedule: Q01DX001 (ip), vehicle: carboxymethylcellulose (CMC)

Measured: T/C

CCOC(=O)c1ccc(NC(=O)Nc2ccc(OC)cc2OC)cc1
inactive: dose: 12.5 mg/kg/injection, schedule: Q01DX009 (ip), vehicle: saline with Tween-80 94 % of control and 95 % of control | dose: 25.0 mg/kg/injection, schedule: Q01DX009 (ip), vehicle: saline with Tween-80 94 % of control and 103 % of control | [1] 95 % of control and 87 % of control | dose: 100.0 mg/kg/injection, schedule: Q01DX001 (ip), vehicle: saline with Tween-80 86 % of control | dose: 100.0 mg/kg/injection, schedule: Q04DX002 (ip), vehicle: saline with Tween-80 97 % of control | dose: 200.0 mg/kg/injection, schedule: Q01DX001 (ip), vehicle: saline with Tween-80 89 % of control | dose: 200.0 mg/kg/injection, schedule: Q04DX002 (ip), vehicle: saline with Tween-80 91 % of control | dose: 400.0 mg/kg/injection, schedule: Q01DX001 (ip), vehicle: saline with Tween-80 91 % of control | dose: 400.0 mg/kg/injection, schedule: Q04DX002 (ip), vehicle: saline with Tween-80 93 % of control

O=S(O)OS(=O)O
inactive: [2] 93 % of control | [3] 100 % of control | [4] 90 % of control | [5] 104 % of control | [6] 86 % of control | [7] 102 % of control

CC(C)(C)NC(=O)NCc1ccco1
inactive: dose: 12.5 mg/kg/injection, schedule: Q01DX009 (ip), vehicle: Klucel (hydroxypropylcellulose) (HPC) 98 % of control | dose: 25.0 mg/kg/injection, schedule: Q01DX009 (ip), vehicle: Klucel (hydroxypropylcellulose) (HPC) 98 % of control | dose: 50.0 mg/kg/injection, schedule: Q01DX009 (ip), vehicle: Klucel (hydroxypropylcellulose) (HPC) 101 % of control

O=P(NCCO)(OCC(Br)CBr)OCC(Br)CBr (stereo unspecified)
inactive: [1] 94 % of control | dose: 100.0 mg/kg/injection, schedule: Q01DX009 (ip), vehicle: saline with Tween-80 102 % of control | dose: 200.0 mg/kg/injection, schedule: Q01DX009 (ip), vehicle: saline with Tween-80 98 % of control

Cc1cc(C)nc(N)c1
inactive: dose: 12.5 mg/kg/injection, schedule: Q04DX002 (ip), vehicle: saline 105 % of control | dose: 25.0 mg/kg/injection, schedule: Q04DX002 (ip), vehicle: saline 114 % of control

CCOC(=O)C(CC(C)C)NC(=O)c1ccc(C)c2c1Nc1c(c(C)c3oc(=O)c(C)nc3c1C(=O)NC(CC(C)C)C(=O)OCC)O2 (stereo unspecified)
inactive: [8] 91 % of control | [9] 86 % of control | dose: 300.0 mg/kg/injection, schedule: Q01DX001 (ip), vehicle: other 88 % of control

O=C1CCS(=O)(=O)CC1
inactive: dose: 50.0 mg/kg/injection, schedule: Q04DX003 (ip), vehicle: saline with Tween-80 92 % of control | dose: 100.0 mg/kg/injection, schedule: Q04DX003 (ip), vehicle: saline with Tween-80 90 % of control | dose: 200.0 mg/kg/injection, schedule: Q04DX003 (ip), vehicle: saline with Tween-80 89 % of control

COc1cccc(-n2cc(C#N)c3c(C)cc(C)nc32)c1
inactive: dose: 100.0 mg/kg/injection, schedule: Q01DX001 (ip), vehicle: saline 87 % of control | [10] 91 % of control | [11] 87 % of control

Cc1ccc(S(=O)(=O)Nc2cc(C)cc(CCN)c2C)cc1
inactive: dose: 50.0 mg/kg/injection, schedule: Q01DX001 (ip), vehicle: carboxymethylcellulose (CMC) 98 % of control | [12] 101 % of control | [13] 98 % of control | [14] 93 % of control

CC1CCCC(C)(CO)O1 (stereo unspecified)
inactive: [2] 93 % of control | [3] 97 % of control | [4] 101 % of control | [5] 97 % of control | [6] 109 % of control | [7] 97 % of control

N#Cc1ccc(C(CCCCC(Cc2ccccc2)c2ccc(C#N)cc2)Cc2ccccc2)cc1 (stereo unspecified)
inactive: dose: 50.0 mg/kg/injection, schedule: Q01DX001 (ip), vehicle: saline 93 % of control | [10] 102 % of control | [11] 104 % of control

CCCCCCCCCCCCCCCCCC(=O)Oc1c(C(C)(C)C)cc([N+](=O)[O-])c(C)c1[N+](=O)[O-]
inactive: dose: 100.0 mg/kg/injection, schedule: Q04DX002 (ip), vehicle: Klucel (hydroxypropylcellulose) (HPC) 92 % of control | dose: 200.0 mg/kg/injection, schedule: Q04DX002 (ip), vehicle: Klucel (hydroxypropylcellulose) (HPC) 92 % of control | dose: 400.0 mg/kg/injection, schedule: Q04DX002 (ip), vehicle: Klucel (hydroxypropylcellulose) (HPC) 96 % of control

COc1cc2c(cc1OC)/C(=C(\C#N)CCC(C)=O)NCC2
inactive: [12] 92 % of control | [13] 92 % of control

CC(C)=CCC(C#N)(CCN1CCCCC1)c1cccc2ccccc12 (stereo unspecified)
inactive: dose: 12.5 mg/kg/injection, schedule: Q04DX003 (ip), vehicle: Klucel (hydroxypropylcellulose) (HPC) 99 % of control | dose: 25.0 mg/kg/injection, schedule: Q04DX003 (ip), vehicle: Klucel (hydroxypropylcellulose) (HPC) 103 % of control | dose: 50.0 mg/kg/injection, schedule: Q04DX003 (ip), vehicle: Klucel (hydroxypropylcellulose) (HPC) 100 % of control

CCCCCCCCC(O)CC (stereo unspecified)
inactive: dose: 100.0 mg/kg/injection, schedule: Q01DX009 (ip), vehicle: Klucel (hydroxypropylcellulose) (HPC) 93 % of control and 96 % of control | dose: 100.0 mg/kg/injection, schedule: Q04DX003 (ip), vehicle: Klucel (hydroxypropylcellulose) (HPC) 103 % of control | dose: 200.0 mg/kg/injection, schedule: Q01DX009 (ip), vehicle: Klucel (hydroxypropylcellulose) (HPC) 96 % of control | dose: 200.0 mg/kg/injection, schedule: Q04DX003 (ip), vehicle: Klucel (hydroxypropylcellulose) (HPC) 97 % of control | dose: 400.0 mg/kg/injection, schedule: Q01DX009 (ip), vehicle: Klucel (hydroxypropylcellulose) (HPC) 92 % of control and 105 % of control | dose: 400.0 mg/kg/injection, schedule: Q04DX003 (ip), vehicle: Klucel (hydroxypropylcellulose) (HPC) 97 % of control

N#CN=C([S-])[S-].N#CN=C([S-])[S-].[Cu]
inactive: dose: 6.25 mg/kg/injection, schedule: Q01DX009 (ip), vehicle: saline 102 % of control | dose: 12.5 mg/kg/injection, schedule: Q01DX009 (ip), vehicle: saline 96 % of control | dose: 25.0 mg/kg/injection, schedule: Q01DX009 (ip), vehicle: saline 93 % of control

CC(C)N1C(Nc2ccccn2)C(C)(C)C(C)(C)C1Nc1ccccn1 (stereo unspecified)
inactive: dose: 100.0 mg/kg/injection, schedule: Q04DX002 (ip), vehicle: gum acacia 110 % of control | dose: 200.0 mg/kg/injection, schedule: Q04DX002 (ip), vehicle: gum acacia 120 % of control | dose: 400.0 mg/kg/injection, schedule: Q04DX002 (ip), vehicle: gum acacia 97 % of control

COC(=O)/C=C/Nc1ccccc1
inactive: dose: 100.0 mg/kg/injection, schedule: Q04DX003 (ip), vehicle: other 98 % of control | dose: 200.0 mg/kg/injection, schedule: Q04DX003 (ip), vehicle: other 98 % of control | dose: 400.0 mg/kg/injection, schedule: Q04DX003 (ip), vehicle: other 94 % of control

Nc1ccc2c(c1)Cc1c-2cc(I)c(O)c1I
inactive: [12] 98 % of control | [13] 101 % of control | [14] 101 % of control

O=C(O)/C=C/C(=O)Nc1cccc(Oc2ccc([N+](=O)[O-])cc2[N+](=O)[O-])c1
inactive: [3] 106 % of control | [5] 111 % of control | [7] 104 % of control

CCCCCCCCCCCCCCCC(=O)Nc1ccc(C(=O)C[n+]2ccc3c(NC(=O)CCC(=O)OC)cccc3c2)cc1
inactive: [8] 86 % of control | [9] 95 % of control
